13 compounds from PubChem BioAssay (NCI) can be followed below.

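Method: 48-hour compound exposure of cells in 96-well plates, five concentrations, linear interpolation of endpoints. Abbreviation: GI50, concentration required for 50% inhibition of growth. TGI is the concentration that stops growth completely.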

What all share (experiment): NCI tumour cell line growth inhibition, 48 h
For experiment [1], the system named is HL-60(TB) leukemia.
Experiment [2] concerns SK-MEL-28 melanoma.
Experiment [3] relates to NCI-H23 lung.
Experiment [4] has as its system OVCAR-3 ovarian.
Experiment [5] deals with MDA-MB-231 breast.
In experiment [6] the test system is DU-145 prostate.
The test system of experiment [7] is SR leukemia.
In experiment [8] the test system is UACC-257 melanoma.
Experiment [9] has as its system HS 578T breast.
Experiment [10] has as its system NCI-H226 lung.
Experiment [11] has as its system HOP-92 NSCLC.

Regarding `COC(=O)[C@]1(C)CCC[C@@]2(C)C1CC[C@@]13C=C(C(C)C)[C@@H](CC1=O)CC23` (stereo not given in full), the TGI is 36.4 µM in experiment [1]; > 100 µM in experiment [2]; > 100 µM in experiment [3]; 45.9 µM in [4]; 95.7 µM in [5]; > 100 µM in experiment [6]. In addition, the TGI in [7] is 30.9 µM; in experiment [8] it was 62.4 µM; in experiment [9], 43.9 µM; in experiment [10], 39 µM.

For `Nc1ncc2c(n1)-c1ccccc1OC2N1CCCCC1` (stereo not given), the TGI in experiment [11], in experiment [1], in experiment [3], in experiment [4], in experiment [5] and in [6] was > 100 µM in each case. The TGI in experiment [7], in [8], in experiment [9] and in [10] was > 100 µM throughout.

With `COc1cc(/C=C2\CN(S(=O)(=O)c3ccc(C)cc3)C/C(=C\c3cc(CN4CCCC4)c(O)c(OC)c3)C2=O)cc(CN2CCCC2)c1O`, the GI50 is 1.15 µM in experiment [11]; 1.92 µM in experiment [2]; 1.07 µM in experiment [4]; 1.8 µM in [5]; 0.926 µM in experiment [6]; 0.412 µM in experiment [7]. Further, the GI50 was 1.53 µM in [8], 2.73 µM in experiment [9] and 1.63 µM in [10]. Moreover, the TGI in experiment [11] is 3.83 µM; in [2] it was 3.51 µM; in experiment [4] it was 2.35 µM; in experiment [5], 3.53 µM; in experiment [6], 2.15 µM; in [7] it was 3.45 µM. For the same compound, the values for the TGI in experiment [8], in [9] and in [10] were 3.17 µM, 7.72 µM and 3.16 µM, respectively.

Turning to `O=C1c2sc(-c3ccc(Cl)cc3)cc2-n2cccc21`, the TGI in experiment [2], in experiment [4], in experiment [5], in [6], in experiment [7] and in experiment [8] was > 100 µM throughout. Moreover, the TGI in experiment [9] and in experiment [10] was > 100 µM in each case.

Regarding `O=c1[nH]c(=O)n(C2COC(CO)C2O)cc1F` (stereo not given), the TGI in experiment [11], in experiment [2], in [3], in experiment [4], in experiment [5] and in experiment [6] was > 100 µM each time. Further, the TGI in experiment [7], in [8], in [9] and in [10] was > 100 µM each time.

`C=CCNC(=S)N/C=C(\C#N)C(N)=O`: the TGI in experiment [1], in experiment [2], in [3], in experiment [4], in experiment [5] and in [6] was > 100 µM throughout. Besides, the TGI in experiment [7], in experiment [8], in [9] and in experiment [10] was > 100 µM throughout.

For the compound `O=C1/C(=C/c2ccco2)NC(=S)N1CN1CCCCC1`, the TGI in experiment [11], in experiment [2], in experiment [3], in [4], in [5] and in [6] was > 100 µM each time. The TGI in [7], in [9] and in experiment [10] was > 100 µM each time.

For `O=C1c2ccccc2-n2nnnc2C2CSCN12` (stereo not given), the TGI in experiment [2], in experiment [4], in experiment [5], in experiment [6], in experiment [7] and in experiment [8] was > 100 µM throughout. Further, the TGI in experiment [9] and in [10] was > 100 µM each time.

Regarding `CCOC(=O)c1nnn(CCCCO)c1C(=O)OCC`, the TGI in experiment [11], in experiment [2], in experiment [3], in experiment [5], in [6] and in experiment [7] was > 100 µM in each case. The TGI in experiment [8], in experiment [9] and in experiment [10] was > 100 µM throughout.

For `COC(=O)c1ccc(Cc2cc(Cc3ccc(C(=O)OC)cc3)cc(Cc3ccc(C(=O)OC)cc3)c2)cc1`, the TGI in experiment [11], in [1], in [2], in [4], in experiment [5] and in experiment [6] was > 25 µM each time. Further, the TGI in [7], in [8], in experiment [9] and in experiment [10] was > 25 µM throughout.

Take `N#C/C(N)=C(\C#N)NC=NCCO`: the TGI in experiment [1], in experiment [2], in experiment [3], in experiment [4], in [5] and in [6] was > 100 µM each time. The TGI in experiment [7], in experiment [8], in [9] and in experiment [10] was > 100 µM each time.

In the case of `C[C@]12[C@@H]3CC[C@H]1[C@@H](O)C(=O)N2CC3`, the TGI in [11], in experiment [1], in experiment [2], in [3], in experiment [5] and in experiment [6] was > 100 µM in each case. The TGI in experiment [7], in [8] and in experiment [9] was > 100 µM each time.

As for `Cc1ccc(Nc2nc(NNC(=O)Cc3ccccc3)nc(NNC(=O)c3ccncc3)n2)cc1`, the TGI in [11], in experiment [1], in experiment [2], in [3], in [5] and in [6] was > 10 µM in each case. The TGI in [7], in experiment [8] and in [9] was > 10 µM in each case.
